Patent US11273126B2, “Amorphous dispersion of cyclopropanecarboxylic acid (5-{5-[N′-(2-chloro-6-methylbenzoyl) hydrazinocarbonyl]-2-methyl-phenylethynyl}-pyridin-2-yl) amide” (SUN PHARMA ADVANCED RESEARCH COMPANY LIMITED, priority 2017, dated 2022)

Experiment: Oral administration to dogs, plasma levels of compound of formula I (bioavailability)
Format: in vivo
Conditions: dog, plasma level of compound of formula I
Method: Suitable amount of amorphous dispersion of Example I and the crystalline form of compound of formula I suspended in a vehicle were administered orally to dogs. Blood samples were withdrawn at various time intervals and the plasma levels of compound of formula I were recorded. The Cmax, AUC0 to 1 and AUC0-∞, in plasma are tabulated below.

Cc1ccc(C(=O)NNC(=O)c2c(C)cccc2Cl)cc1C#Cc1ccc(NC(=O)C2CC2)nc1 [Compound of formula I in a vehicle, cyclopropanecarboxylic acid (5-{5-[N′-(2-chloro-6-methylbenzoyl) hydrazinocarbonyl]-2-methyl-phenylethynyl}-pyridin-2-yl)amide]
AUC(0-inf): 388 ng·h/mL
AUC(0-t): 290 ng·h/mL
Cmax: 41 ng/mL
